Data published in PubChem BioAssay AID1963869 (Molecular Pharmacology Branch, DTP, NCI, 2024).
pIC50: −log10 of the molar value.

Tested on: KRAS patient-derived spheroids with HUVEC/MSC, viability
Experiment: Anticancer human tumor 323965-272-R-J2-PDC patient-derived pancreatic carcinoma cell line growth inhibition [KRAS2]
Conditions: for pIC50: curve of first compound; for viability, T/C: stronger effect = lower value
Method in brief: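 Combination screen of spheroid viability in tumor-cell co-cultures with endothelial (HUVEC) and mesenchymal stem cell stroma. Each agent was tested in half-log dilutions, topping at clinical Cmax or at 10 microM without a known Cmax.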

[1] = second compound 0.1 µM, first compound 0.0316 µM
[2] = second compound 0.1 µM, first compound 0.1 µM
[3] = second compound 0.1 µM, first compound 0.316 µM
[4] = second compound 0.1 µM, first compound 1 µM
[5] = second compound 0.316 µM, first compound 0.0316 µM
[6] = second compound 0.316 µM, first compound 0.1 µM
[7] = second compound 0.316 µM, first compound 0.316 µM
[8] = second compound 0.316 µM, first compound 1 µM
[9] = second compound 1 µM, first compound 0.0316 µM
[10] = second compound 1 µM, first compound 0.1 µM
[11] = second compound 1 µM, first compound 0.316 µM
[12] = second compound 1 µM, first compound 1 µM
[13] = second compound 3.16 µM, first compound 0.0316 µM
[14] = second compound 3.16 µM, first compound 0.1 µM
[15] = second compound 3.16 µM, first compound 0.316 µM
[16] = second compound 3.16 µM, first compound 1 µM
[17] = second compound 10 µM, first compound 0.0316 µM
[18] = second compound 10 µM, first compound 0.1 µM
[19] = second compound 10 µM, first compound 0.316 µM
[20] = second compound 10 µM, first compound 1 µM
[21] = second compound 0.1 µM, first compound 3.16 µM
[22] = second compound 0.1 µM, first compound 10 µM
[23] = second compound 0.316 µM, first compound 3.16 µM
[24] = second compound 0.316 µM, first compound 10 µM
[25] = second compound 1 µM, first compound 3.16 µM
[26] = second compound 1 µM, first compound 10 µM
[27] = second compound 3.16 µM, first compound 3.16 µM
[28] = second compound 3.16 µM, first compound 10 µM
[29] = second compound 10 µM, first compound 3.16 µM
[30] = second compound 10 µM, first compound 10 µM
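Further: spheroids exposed to agents for 7 days.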
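Wherever viability, T/C is given: 100% = DMSO vehicle control viability.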

Row | Compound | pIC50 (second compound 0.1 µM) | pIC50 (second compound 0.316 µM) | pIC50 (second compound 1 µM) | pIC50 (second compound 3.16 µM) | pIC50 (second compound 10 µM) | viability, T/C [1] | viability, T/C [2] | viability, T/C [3] | viability, T/C [4] | viability, T/C [5] | viability, T/C [6] | viability, T/C [7] | viability, T/C [8] | viability, T/C [9] | viability, T/C [10] | viability, T/C [11] | viability, T/C [12] | viability, T/C [13] | viability, T/C [14] | viability, T/C [15] | further results
1 | CCN1CCN(Cc2ccc(Nc3ncc(F)c(-c4cc(F)c5nc(C)n(C(C)C)c5c4)n3)nc2)CC1 + CNCc1ccccc1-c1csc(C(C)Nc2nc(C)nc3cc(OC)c(OC)cc23)c1 | < 6.00 | < 6.00 | < 6.00 | 6.90 | > 8.50 | 59.8% | 47% | 51.5% | 59.7% | 65.7% | 56% | 53% | 56% | 72.6% | 71.8% | 61.8% | 57.7% | 68.4% | 53.4% | 33% | viability, T/C (second compound 0.1 µM, first compound 0.00316 µM): 91.5%; viability, T/C (second compound 0.1 µM, first compound 0.01 µM): 85.2%; viability, T/C (second compound 0.316 µM, first compound 0.00316 µM): 97.3%; viability, T/C (second compound 0.316 µM, first compound 0.01 µM): 93.3%; viability, T/C (second compound 1 µM, first compound 0.00316 µM): 94.2%; viability, T/C (second compound 1 µM, first compound 0.01 µM): 92.8%; viability, T/C (second compound 3.16 µM, first compound 0.00316 µM): 80%; viability, T/C (second compound 3.16 µM, first compound 0.01 µM): 79.2%; viability, T/C [16]: 1.27%; viability, T/C (second compound 10 µM, first compound 0.00316 µM): 0.23%; viability, T/C (second compound 10 µM, first compound 0.01 µM): 0.23%; viability, T/C [17]: 0.18%; viability, T/C [18]: 0.16%; viability, T/C [19]: 0.16%; viability, T/C [20]: 0.18%
2 | CCNC(=O)CC1N=C(c2ccc(Cl)cc2)c2cc(OC)ccc2-n2c(C)nnc21 (stereo not given) + CNCc1ccccc1-c1csc(C(C)Nc2nc(C)nc3cc(OC)c(OC)cc23)c1 | 6.43 | 6.48 | 6.33 | 6.36 | > 7.50 | 94.1% | 75.7% | 51.9% | 38.5% | 87.2% | 77.7% | 50.3% | 36.4% | 94.8% | 80.2% | 54.8% | 40.1% | 98.9% | 80.7% | 55.4% | viability, T/C [21]: 33.7%; viability, T/C [22]: 33.5%; viability, T/C [23]: 34.5%; viability, T/C [24]: 31.6%; viability, T/C [25]: 34.2%; viability, T/C [26]: 32.4%; viability, T/C [16]: 36.3%; viability, T/C [27]: 26.2%; viability, T/C [28]: 24.1%; viability, T/C [17]: 0.5%; viability, T/C [18]: 0.19%; viability, T/C [19]: 0.17%; viability, T/C [20]: 0.15%; viability, T/C [29]: 0.21%; viability, T/C [30]: 0.3%
3 | Cn1nccc1Nc1nccc(-c2cc3c(s2)C(C)(C)N(CCN2CCOCC2)C3=O)n1 + CNCc1ccccc1-c1csc(C(C)Nc2nc(C)nc3cc(OC)c(OC)cc23)c1 | 5.98 | 5.87 | 5.40 | 5.78 | > 7.50 | 98.5% | 84.4% | 64.6% | 51.3% | 86.9% | 79.3% | 71.9% | 52.2% | 95.5% | 89.4% | 72.8% | 67.3% | 92.6% | 78.5% | 70% | viability, T/C [21]: 41%; viability, T/C [22]: 37.2%; viability, T/C [23]: 41.7%; viability, T/C [24]: 38.1%; viability, T/C [25]: 48.1%; viability, T/C [26]: 45%; viability, T/C [16]: 54.9%; viability, T/C [27]: 43.2%; viability, T/C [28]: 30%; viability, T/C [17]: 0.23%; viability, T/C [18]: 0.22%; viability, T/C [19]: 0.19%; viability, T/C [20]: 0.17%; viability, T/C [29]: 0.17%; viability, T/C [30]: 0.19%
